Experimental data reported in US4822635A, “Sweetening with L-aminodicarboxylic acid esters” (General Foods Corporation, priority 1988, dated 1989).
Several values for one entry are separate records, joined by “and”; a condition that tells them apart may be missing. Equal entries are not always repeated. Each block holds one compound with its values, some of them ahead of it. Where a SMILES comes first, the peptide text is derived from it. The star is where a group is joined. tBu = CC(C)(C)*

Experiments:
[1] = Stability (half life) in buffer solutions at pH 3, 5 and 7 at 50, 75 or 100 °C; format: physicochemical; settings: for half-life: buffer; for Stability in buffered solutions: buffered solutions at pH 3, 5 and 7; for Stability compared with aspartame: buffered solutions studied, except pH 3 at 100 °C
Procedure: α-L-Aspartyl-2-methylalanine[β(+)Fenchyl]ester (Example 9), α-L-Aspartyl-D-alanine[β(+)Fenchyl]ester, (Example 10) and aspartame L-Aspartyl-L-phenylalanine methyl ester were studied for stability at pH3, 5 and 7 in buffer solutions maintained at 50° C., 75° C., or 100° C., the following results were obtained: […]

[2] = Sweetness determination by a panel of experts: aqueous solutions matched to sucrose standard solutions (sucrose equivalence); design: key to Sucrose equivalence: weight % sucrose solution of matched sweetness
Excerpt: A taste procedure for determination of sweetness merely involves the determination of sucrose equivalency. Sucrose equivalence for sweeteners are readily determined. The amount of a sweetener that is equivalent to a given weight percent sucrose can be determined by having a panel of tasters taste solutions of a sweetener at known concentrations and match its sweetness to standard solutions of sucrose.
The following examples further illustrate the invention. In the following examples, the sensory evaluation were obtained by a panel of experts using known weight percent aqueous solutions of the exemplified compounds and were matched to sucrose standard solutions.

[3] = prior art statement; cited from earlier work
[4] = pH 3, buffer solution, 50 °C, pH 3
[5] = pH 3, buffer solution, 75 °C, pH 3
[6] = pH 3, buffer solution, 100 °C, pH 3
[7] = pH 5, buffer solution, 50 °C, pH 5
[8] = pH 5, buffer solution, 75 °C, pH 5
[9] = pH 5, buffer solution, 100 °C, pH 5
[10] = pH 7, buffer solution, 100 °C, pH 7
[11] = concentration 0.00185 (weight percent aqueous solution)
[12] = concentration 0.0025 (weight percent aqueous solution)
[13] = concentration 0.00375 (weight percent aqueous solution)
[14] = concentration 0.005 (weight percent aqueous solution)
[15] = concentration 0.00692 (so in the source), weight percent aqueous solution
[16] = concentration 0.0075 (weight percent aqueous solution)
[17] = concentration 0.01 (weight percent aqueous solution)
[18] = concentration 0.00012 (weight percent aqueous solution)
[19] = concentration 0.00024 (weight percent aqueous solution)
[20] = concentration 0.00047 (weight percent aqueous solution)
[21] = concentration 0.00092 (weight percent aqueous solution)
[22] = concentration 0.010 (weight percent aqueous solution)
[23] = concentration 0.025 (weight percent aqueous solution)
[24] = concentration 0.05 (weight percent aqueous solution)

- half-life [1, 4]: 92200 min
- half-life [1, 5]: 4320 min
- half-life [1, 6]: 504 min
- half-life [1, 7]: 216000 min
- half-life [1, 8]: 21600 min
- half-life [1, 9]: 1980 min
- half-life [1, 10]: 4020 min
- Stability compared with Example 10 ([1]; buffered solutions): more stable
- Stability in buffered solutions [1]: outstanding stability
- Stability compared with aspartame [1]: better stability
Structure (SMILES): CC(C)(NC(=O)[C@@H](N)CC(=O)O)C(=O)OC1C2(C)CCC(C2)C1(C)C (single isomer, unassigned) [Example 9, α-L-Aspartyl-2-methylalanine[β(+)Fenchyl]ester]
- Sucrose equivalence [2, 11]: 5.7%
- Sweetness relative to sucrose [2, 11]: 3100 × Sucrose
- Sucrose equivalence [2, 12]: 6.0% and 4.3% and 4.25%
- Sweetness relative to sucrose [2, 12]: 2400 × Sucrose and 1733 × Sucrose and 1700 × Sucrose
- Sucrose equivalence [2, 13]: 6.0%
- Sweetness relative to sucrose [2, 13]: 1600 × Sucrose
- Sucrose equivalence [2, 14]: 7.37% and 7.0% and 6.0%
- Sweetness relative to sucrose [2, 14]: 1475 × Sucrose and 1400 × Sucrose and 1200 × Sucrose
- Sucrose equivalence [2, 15]: 3.5%
- Sweetness relative to sucrose [2, 15]: 3800 × Sucrose
- Sucrose equivalence [2, 16]: 8.5%
- Sweetness relative to sucrose [2, 16]: 1133 × Sucrose
- Sucrose equivalence [2, 17]: 9.25% and 9.0%
- Sweetness relative to sucrose [2, 17]: 925 × Sucrose and 900 × Sucrose

- half-life [1, 4]: 31700 min
- half-life [1, 5]: 1870 min
- half-life [1, 6]: 234 min
- half-life [1, 7]: 189000 min
- half-life [1, 8]: 7340 min
- half-life [1, 9]: 840 min
- half-life [1, 10]: 600 min
- Stability in buffered solutions [1]: outstanding stability
- Stability compared with aspartame [1]: better stability
Structure (SMILES): C[C@@H](NC(=O)[C@@H](N)CC(=O)O)C(=O)OC1C2(C)CCC(C2)C1(C)C (single isomer, unassigned) [Example 10, α-L-Aspartyl-D-alanine[β(+)Fenchyl]ester]
- Sucrose equivalence [2, 18]: 0.6%
- Sweetness relative to sucrose [2, 18]: 5000 × Sucrose
- Sucrose equivalence [2, 19]: 1.42%
- Sweetness relative to sucrose [2, 19]: 5900 × Sucrose
- Sucrose equivalence [2, 20]: 2.28%
- Sweetness relative to sucrose [2, 20]: 4900 × Sucrose
- Sucrose equivalence [2, 21]: 4.7%
- Sweetness relative to sucrose [2, 21]: 5100 × Sucrose
- Sucrose equivalence [2, 11]: 6.5%
- Sweetness relative to sucrose [2, 11]: 3500 × Sucrose
- Sucrose equivalence [2, 12]: 6.0%
- Sweetness relative to sucrose [2, 12]: 2400 × Sucrose
- Sucrose equivalence [2, 13]: 8.6%
- Sweetness relative to sucrose [2, 13]: 2300 × Sucrose
- Sucrose equivalence [2, 14]: 9.3% and 10.0%
- Sweetness relative to sucrose [2, 14]: 1860 × Sucrose and 2000 × Sucrose
- Sucrose equivalence [2, 16]: 9.0%
- Sweetness relative to sucrose [2, 16]: 1200 × Sucrose
- Sucrose equivalence [2, 17]: 11.0%
- Sweetness relative to sucrose [2, 17]: 1100 × Sucrose

- half-life [1, 5]: 1300 min
- half-life [1, 6]: 318 min
- half-life [1, 8]: 1580 min
- half-life [1, 9]: 318 min
- half-life [1, 10]: < 60 min
- Stability compared with Example 9 and Example 10 ([1]; pH 3, 100 °C, between Example 9 and Example 10): intermediate stability
Structure (SMILES): COC(=O)[C@H](Cc1ccccc1)NC(=O)[C@@H](N)CC(=O)O [Aspartame, L-Aspartyl-L-phenylalanine methyl ester, reference compound] (H-Asp-Phe-OMe)

Structure (SMILES): C[C@@H](NC(=O)[C@@H](N)CC(=O)O)C(=O)OC1C(C)(C)CCC1(C)C [Example 1, L-Aspartyl-D-alanine(2,2,5,5-tetramethyl-1-cyclopentyl)ester]
- Sucrose equivalence [2, 14]: 2.5
- Sucrose equivalence [2, 22]: 3.7
- Sucrose equivalence [2, 23]: 7.7
- Sucrose equivalence [2, 24]: 8.0

Structure (SMILES): CC(C)(NC(=O)[C@@H](N)CC(=O)O)C(=O)OC1C(C)(C)CCC1(C)C [Example 2, N-(L-Aspartyl)-2-methylalanine(2,2,5,5-tetramethyl-1-cyclopentyl)ester]
- Sucrose equivalence [2, 14]: 2.00
- Sucrose equivalence [2, 22]: 3.25
- Sucrose equivalence [2, 23]: 5.75

Structure (SMILES): C[C@@H](NC(=O)[C@@H](N)CC(=O)O)C(=O)OC1(C)CCCC1 [Example 6, N-L-Aspartyl-D-alanine (1-methyl-1-cyclopentyl)ester]
- Sucrose equivalence [2, 24]: 2.0
- Sweetness relative to sucrose [2, 24]: 40 × Sucrose

Structure (SMILES): CC1CCC(C)C1OC(=O)[C@@H](C)NC(=O)[C@@H](N)CC(=O)O (stereo partly drawn) [Example 7, N-L-Aspartyl-D-alanine(2,5-dimethylcyclopentyl)ester]
- Sucrose equivalence [2, 14]: 1.16
- Sweetness relative to sucrose [2, 14]: 233 × Sucrose
- Sweetness relative to sucrose [2, 17]: 230 × Sucrose
- Sucrose equivalence [2, 22]: 2.3
- Sucrose equivalence [2, 23]: 4.82
- Sweetness relative to sucrose [2, 23]: 193 × Sucrose
- Sucrose equivalence [2, 24]: 7.50
- Sweetness relative to sucrose [2, 24]: 150 × Sucrose

Structure (SMILES): CC1CCC(C)C1OC(=O)C1(NC(=O)[C@@H](N)CC(=O)O)CC1 (stereo partly drawn) [L-Aspartyl-1-aminocyclopropyl-1-carboxylicacid, 2,5-dimethyl-1-cyclopentyl ester]
- Sucrose equivalence [2, 14]: 1.0
- Sweetness relative to sucrose [2, 14]: 200 × Sucrose
- Sweetness relative to sucrose [2, 17]: 217 × Sucrose
- Sucrose equivalence [2, 22]: 2.2
- Sucrose equivalence [2, 23]: 3.3
- Sweetness relative to sucrose [2, 23]: 133 × Sucrose

Structure (SMILES): CCC(C)(C)OC[C@H](NC(=O)[C@@H](N)CC(=O)O)C(=O)OC [L-aspartyl-O-t-amyl-L-serine methyl ester]
- Sweetness (in words) [3]: significant sweetness

Structure (SMILES): COC(=O)[C@H](COC(C)(C)C)NC(=O)[C@@H](N)CC(=O)O [L-aspartyl-O-t-butyl-L-serine methyl ester] (H-Asp-Ser(tBu)-OMe)
- Sweetness (in words) [3]: significant sweetness
